Values of other authors as cited in US12036216B2 (TAHO Pharmaceuticals Ltd., priority 2021, dated 2024).
Counter-ions that a name gives are not always drawn. Like-named read-outs stand apart in the source and are kept apart here.

Legend:
[1] = immediate release tablet formulation
[2] = biological target: prothrombin time (PT); details: dog; read-out: apparent Ki for PT
[3] = not given; remark: listed apart in the source
[4] = biological target: prothrombin time (PT); details: chimpanzee; read-out: apparent Ki for PT
[5] = not given; remark: listed apart in the source
[6] = not given; remark: listed apart in the source
[7] = biological target: prothrombin time (PT); details: rat; read-out: apparent Ki for PT
[8] = tested on: factor Xa; details: dog; read-out: IC50 for anti-factor Xa activity
[9] = pellets taken without the capsule shell compared with the intact capsule formulation

SMILES	dissolved within 30 minutes [1]	Ki [2] [µM]	Renal clearance as share of systemic clearance (rat)	absolute oral bioavailability (rat) [%]	clearance (CL) (rats)	steady-state volume of distribution (Vd) (rats)	Renal clearance as share of systemic clearance ([3]; dog)	absolute oral bioavailability ([3]; dog) [%]	clearance (CL) ([3]; dogs) [mL/min/kg]	steady-state volume of distribution (Vd) ([3]; dogs) [L/kg]	Ki [4] [µM]	time to peak apixaban plasma concentration ([5]; after oral administration in healthy adults)	bioavailability ([5]; oral)	Renal clearance as share of systemic clearance ([6]; chimpanzee)	absolute oral bioavailability ([6]; chimpanzee) [%]	clearance (CL) ([6]; chimpanzees) [mL/min/kg]	steady-state volume of distribution (Vd) ([6]; chimpanzees) [L/kg]	Ki [7] [µM]	IC50 [8] [µM]	increase of oral bioavailability [9] [%]
COc1ccc(-n2nc(C(N)=O)c3c2C(=O)N(c2ccc(N4CCCCC4=O)cc2)CC3)cc1 [apixaban, Apixaban]	at least 80%	~6.6	[…]	[…]	[…]	[…]	[…]	[…]	~0.67	~0.2	~4.8	[…]	[…]	[…]	[…]	[…]	~0.17	~1.7	[…]	–
CCCCCCOC(=O)NC(=N)c1ccc(NCc2nc3cc(C(=O)N(CCC(=O)OCC)c4ccccn4)ccc3n2C)cc1 [dabigatran etexilate mesylate]	–	–	–	–	–	–	–	–	–	–	–	–	–	–	–	–	–	–	–	75
